In patent EP0788498B1, “PHENYLOXAZOLIDINONE ANTIMICROBIALS” (priority 1994, dated 1996):
In brackets after ≈: the same amount, converted by molar mass. Read-outs that look alike come from different tables or passages of the source.

What was measured:
S. pneumoniae UC® 9912 = assay: Minimum inhibitory concentration (MIC) by agar dilution; assay type: cell-based; settings: Streptococcus pneumoniae
Description: (§1) The oxazolidinone antibacterial agents of this invention have useful activity against a variety of organisms. The in vitro activity of compounds of this invention can be assessed by standard testing procedures such as the determination of minimum inhibitory concentration (MIC) by agar dilution as described in "Methods for Dilution Antimicrobial Susceptibility Tests for Bacteria That Grow Aerobically" (MFT) published Jan. 1983 by the National Committee for Clinical Laboratory Standards, 771 East Lancaster Avenue, Villanova, Pennsylvania 19084, USA. The activity of selected compounds of this invention against Staphylococcus aureus and Streptococcus pneumoniae are shown in Table 1.

S. aureus UC® 9213 = assay: as above; assay type: cell-based; settings: Staphylococcus aureus
Description: as §1

[1] = UC9912, in vitro, agar dilution, strain UC® 9912, read-out: Minimum Inhibitory Concentration S. pneumoniae UC® 9912
[2] = UC9213, in vitro, agar dilution, strain UC® 9213, read-out: Minimum Inhibitory Concentration S. aureus UC® 9213

| Compound | MIC (S. pneumoniae UC® 9912; [1]) | MIC (S. aureus UC® 9213; [2]) | MIC (S. pneumoniae UC® 9912; UC9912, read-out: Minimum Inhibitory Concentration S. pneumoniae UC® 9912) | MIC (S. aureus UC® 9213; UC9213, read-out: Minimum Inhibitory Concentration S. aureus UC® 9213) |
| --- | --- | --- | --- | --- |
| CC(=O)NC[C@H]1CN(c2ccc(N3C[C@@H]4OC(C)(C)O[C@@H]4C3)c(F)c2)C(=O)O1 [Example 8, (S)-N-[[3-[4-(1-Aza-5,5-dimethyl-4,6-dioxabicyclo[3,3,0]octan-1-yl)-3-fluorophenyl]-2-oxo-5-oxazolidinyl]methyl]acetamide] | 8 µg/mL (≈ 20.3 µM) | 32 µg/mL (≈ 81.3 µM) | – | – |
| CC(=O)NC[C@H]1CN(c2ccc(N3C[C@@H](C)[C@@H](NS(C)(=O)=O)C3)c(F)c2)C(=O)O1 (relative stereo) [Example 16] | 1 µg/mL (≈ 2.33 µM) | 8 µg/mL (≈ 18.7 µM) | – | – |
| CON=C1CN(c2ccc(N3C[C@H](CNC(C)=O)OC3=O)cc2F)C1 [Example 5, (S)-N-[[3-[3-fluoro-4-[3-(methoxyimino)-1-azetidinyl]phenyl]-2-oxo-5-oxazolidinyl]methyl]acetamide] | 1 µg/mL (≈ 2.85 µM) | 4 µg/mL (≈ 11.4 µM) | – | – |
| CC(=O)NC[C@H]1CN(c2ccc(N3CC(=O)C3)c(F)c2)C(=O)O1 [Example 4, (S)-N-[[3-[3-fluoro-4-(3-oxo-1-azetidinyl)phenyl]-2-oxo-5-oxazolidinyl]methyl]acetamide] | 0.5 µg/mL (≈ 1.56 µM) | 1 µg/mL (≈ 3.11 µM) | – | – |
| CN[C@H](CC(C)C)C(=O)N[C@H]1C(=O)N[C@@H](CC(N)=O)C(=O)N[C@H]2C(=O)N[C@H]3C(=O)N[C@H](C(=O)N[C@H](C(=O)O)c4cc(O)cc(O)c4-c4cc3ccc4O)[C@H](O)c3ccc(c(Cl)c3)Oc3cc2cc(c3O[C@@H]2O[C@H](CO)[C@@H](O)[C@H](O)[C@H]2O[C@H]2C[C@](C)(N)[C@H](O)[C@H](C)O2)Oc2ccc(cc2Cl)[C@H]1O [vancomycin, reference compound] | – | – | 0.5 µg/mL (≈ 0.345 µM) | 1 µg/mL (≈ 0.69 µM) |
| CC(=O)NC[C@H]1CN(c2ccc(N3CCC(NC(=O)COCc4ccccc4)C3)c(F)c2)C(=O)O1 (stereo partly drawn) [Example 12, (S)-N-((3-(3-Fluoro-4-(3-(phenylmethoxyacetylamino)pyrrolidinyl)phenyl)-2-oxo-5-oxazolidinyl)methyl)acetamide] | 2 µg/mL (≈ 4.13 µM) | 8 µg/mL (≈ 16.5 µM) | – | – |
| CC(=O)NC[C@H]1CN(c2ccc(N3CC(O)C3)c(F)c2)C(=O)O1 [Example 2, (S)-N-[[3-[3-fluoro-4-(3-hydroxy-1-azetidinyl)phenyl]-2-oxo-5-oxazolidinyl]methyl]acetamide] | 2 µg/mL (≈ 6.19 µM) | 4 µg/mL (≈ 12.4 µM) | – | – |

More lines, in order of falling MIC (S. pneumoniae UC® 9912; [1]), values ahead:

| MIC (S. pneumoniae UC® 9912; [1]) | MIC (S. aureus UC® 9213; [2]) | Compound | MIC (S. pneumoniae UC® 9912; UC9912, read-out: Minimum Inhibitory Concentration S. pneumoniae UC® 9912) | MIC (S. aureus UC® 9213; UC9213, read-out: Minimum Inhibitory Concentration S. aureus UC® 9213) |
| --- | --- | --- | --- | --- |
| 8 µg/mL (≈ 20.9 µM) | 16 µg/mL (≈ 41.8 µM) | CC(=O)NC[C@H]1CN(c2ccc(N3CC(N(C)CCF)C3)c(F)c2)C(=O)O1 [Example 3, (S)-N-[[3-[3-fluoro-4-[3-[N-(2-fluoroethyl)-N-methylamino]-1-azetidinyl]phenyl]-2-oxo-5-oxazolidinyl]methyl]acetamide] | – | – |
| 4 µg/mL (≈ 11.4 µM) | 8 µg/mL (≈ 22.8 µM) | COC1(C)CN(c2ccc(N3C[C@H](CNC(C)=O)OC3=O)cc2F)C1 [Example 6, (S)-N-[[3-[3-fluoro-4-(3-methoxy-3-methyl-1-azetidinyl)phenyl]-2-oxo-5-oxazolidinyl]methyl]acetamide] | – | – |
| 2 µg/mL (≈ 5.66 µM) | 8 µg/mL (≈ 22.6 µM) | CC(=O)NC[C@H]1CN(c2ccc(N3C[C@@H](O)[C@@H](O)C3)c(F)c2)C(=O)O1 [Example 9, (S)-N-[[3-[4-(3,4-cis-dihydroxypyrrolidinyl)-3-fluorophenyl]-2-oxo-5-oxazolidinyl]methyl]acetamide] | – | – |
| 2 µg/mL (≈ 5.07 µM) | 16 µg/mL (≈ 40.6 µM) | CC(=O)NC[C@H]1CN(c2ccc(N3CCC(NC(=O)CO)C3)c(F)c2)C(=O)O1 (stereo partly drawn) [Example 13, (S)-N-((3-(3-Fluoro-4-(3-(hydroxyacetylamino)pyrrolidinyl)phenyl)-2-oxo-5-oxazolidinyl)methyl)acetamide] | – | – |
| 2 µg/mL (≈ 5.96 µM) | 4 µg/mL (≈ 11.9 µM) | CC(=O)NC[C@H]1CN(c2ccc(N3CCC(=O)C3)c(F)c2)C(=O)O1 [Example 11, (S)-N-((3-(3-fluoro-4-(3-oxopyrrolidinyl)phenyl)-2-oxo-5-oxazolidinyl)methyl)acetamide] | – | – |
| 2 µg/mL (≈ 5.93 µM) | 8 µg/mL (≈ 23.7 µM) | CC(=O)NC[C@H]1CN(c2ccc(N3CC(C)(O)C3)c(F)c2)C(=O)O1 [Example 7, (S)-N-[[3-[3-fluoro-4-(3-hydroxy-3-methyl-1-azetidinyl)phenyl]-2 oxo-5-oxazolidinyl]methyl]acetamide] | – | – |
| 2 µg/mL (≈ 5.93 µM) | 4 µg/mL (≈ 11.9 µM) | COC1CN(c2ccc(N3C[C@H](CNC(C)=O)OC3=O)cc2F)C1 [Example 1, (S)-N-[[3-[3-fluoro-4-(3-methoxy-1-azetidinyl]phenyl]-2-oxo-5-oxazolidinyl]methyl]acetamide] | – | – |
| 2 µg/mL (≈ 4.9 µM) | 16 µg/mL (≈ 39.2 µM) | CC(=O)NC[C@H]1CN(c2ccc(N3C[C@@H](C)[C@@H](NC(=O)CO)C3)c(F)c2)C(=O)O1 (relative stereo) [Example 15] | – | – |
| 1 µg/mL (≈ 2.45 µM) | 4 µg/mL (≈ 9.79 µM) | COC(=O)N[C@H]1CN(c2ccc(N3C[C@H](CNC(C)=O)OC3=O)cc2F)C[C@H]1C (relative stereo) [Example 14] | – | – |
| 1 µg/mL (≈ 2.96 µM) | 2 µg/mL (≈ 5.93 µM) | CC(=O)NC[C@H]1CN(c2ccc(N3CCC(O)C3)c(F)c2)C(=O)O1 (stereo partly drawn) [Example 10, (S)-N-[[3-[4-(3-hydroxypyrrolidinyl)-3-fluorophenyl]-2-oxo-5-oxazolidinyl]methyl]acetamide] | – | – |
